Source: patent US9663548B2, “10-α/β-D-arabinofuranosyl-undecenes as potential anti-mycobacterial agents and process for the preparation thereof” (priority 2011, dated 2017)
Values after ≈ are worked out from the molar mass of the structure shown.

Tested on: Mycobacterium bovis BCG
Assay: microbe, parasite or virus in culture
Type: cell-based
Conditions: for IC50: M. bovis BCG growth, 8 days incubation; for inhibition at 1 µg/mL: read-out: % Inhibition of growth of Mycobacterium Bovis BCG, at 1 μg/ml concentration
[1] = Mycobacterium tuberculosis variant bovis BCG, BCG, 192 h
[2] = Mycobacterium tuberculosis variant bovis BCG, BCG

SMILES	MIC90 [1] [µg/mL]	IC50 [1] [µg/mL]	inhibition at 1 µg/mL [2] [%]	other results
C=CCCCCCCCCCC1OC(CO)C(O)C1O (stereo not drawn) [Compound 1]	15 (≈ 52.4 µM)	1.1 (≈ 3.84 µM)	48	
C=CCCCCCCCCC[C@H]1O[C@H](CO)[C@@H](O)[C@@H]1O [Compound 2]	1.6 (≈ 5.59 µM)	0.19 (≈ 0.663 µM)	85	IC50 (listed as α-C-glycoside): 0.2 µg/mL (≈ 0.698 µM)
C=CCCCCCCCCCC1OC(COC2OC(CO)C(O)C2O)C(O)C1O (stereo not drawn) [Compound 4]				IC50: 19 µg/mL (≈ 45.4 µM); % Inhibition of growth of Mycobacterium Bovis BCG (at 1 μg/ml concentration): 28%
C=CCCCCCCCCCO [Compound 10-undecenol, 10-undecenol, reference compound]				inhibition of M. bovis BCG (control experiment with aglycon) (FIG. 1d, doses 0.1 to 100 μg/ml): poor inhibitor
CC[C@@H](CO)NCCN[C@@H](CC)CO [Ethambutol, ethambutol, reference compound]	2.9 (≈ 14.2 µM)	0.2 (≈ 0.979 µM)	85	
CO[C@H]1/C=C/O[C@@]2(C)Oc3c(C)c(O)c4c(O)c(c(/C=N/N5CCN(C)CC5)c(O)c4c3C2=O)NC(=O)/C(C)=C\C=C\[C@H](C)[C@H](O)[C@@H](C)[C@@H](O)[C@@H](C)[C@H](OC(C)=O)[C@@H]1C [Rifampicin, rifampicin, reference compound]		0.02 (≈ 0.0243 µM)		inhibition at 0.2 µg/mL (Mycobacterium tuberculosis variant bovis BCG, BCG, read-out: % Inhibition of growth of Mycobacterium Bovis BCG, at 0.2 μg/ml): 99%
